Assay results taken from US9125913B2, “Bcl-2-selective apoptosis-inducing agents for the treatment of cancer and immune diseases” (AbbVie Inc., priority 2008, dated 2015).

test system: GST-Bcl-2; assay: TR-FRET binding assay, Bcl-2; conditions: TR-FRET Ki values
How it was run: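 Compounds serially diluted in DMSO from 50 μM (2× starting concentration, 10% DMSO), mixed with GST-tagged protein, F-Bak peptide probe and Tb-labeled antibody, incubated 3 h at room temperature.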

Compound	Binding selectivity ratio (Bcl-XL Ki/Bcl-2 Ki)
CN(C)CC(=O)N1CC[C@@H](Nc2ccc(S(=O)(=O)NC(=O)c3ccc(N4CCN(CC5=C(c6ccc(Cl)cc6)CC(C)(C)CC5)CC4)cc3Oc3cccc4[nH]cnc34)cc2[N+](=O)[O-])C1 [EXAMPLE 430, 2-(1H-benzimidazol-4-yloxy)-4-(4-{[2-(4-chlorophenyl)-4,4-dimethylcyclohex-1-en-1-yl]methyl}piperazin-1-yl)-N-[(4-{[(3R)-1-(N,N-dimethylglycyl)pyrrolidin-3-yl]amino}-3-nitrophenyl)sulfonyl]benzamide]	99.767
CC(=O)N1CCOC(CNc2ccc(S(=O)(=O)NC(=O)c3ccc(N4CCN(CC5=C(c6ccc(Cl)cc6)CC(C)(C)CC5)CC4)cc3Oc3cccc4[nH]cnc34)cc2[N+](=O)[O-])C1 (stereo not shown) [EXAMPLE 457, N-[(4-{[(4-acetylmorpholin-2-yl)methyl]amino}-3-nitrophenyl)sulfonyl]-2-(1H-benzimidazol-4-yloxy)-4-(4-{[2-(4-chlorophenyl)-4,4-dimethylcyclohex-1-en-1-yl]methyl}piperazin-1-yl)benzamide]	7414
CN1CCC(Nc2ccc(S(=O)(=O)NC(=O)c3ccc(N4CCN(CC5=C(c6ccc(Cl)cc6)CC(C)(C)CC5)CC4)cc3Oc3cccc4c3CCN4)cc2[N+](=O)[O-])CC1 [EXAMPLE 395, 4-(4-{[2-(4-chlorophenyl)-4,4-dimethylcyclohex-1-en-1-yl]methyl}piperazin-1-yl)-2-(2,3-dihydro-1H-indol-4-yloxy)-N-({4-[(1-methylpiperidin-4-yl)amino]-3-nitrophenyl}sulfonyl)benzamide]	23.62
CN(C)CCCNc1ccc(S(=O)(=O)NC(=O)c2ccc(N3CCN(Cc4ccccc4-c4ccc(Cl)cc4)CC3)cc2Oc2ccccc2)cc1C(F)(F)F [Example 92, 4-{4-[(4′-chloro-1,1′-biphenyl-2-yl)methyl]piperazin-1-yl}-N-{[4-{[3-(dimethylamino)propyl]amino}-3-(trifluoromethyl)phenyl]sulfonyl}-2-phenoxybenzamide]	79.7
CC1(C)CCC(CN2CCN(c3ccc(C(=O)NS(=O)(=O)c4ccc(NCC5CN(S(C)(=O)=O)CCO5)c([N+](=O)[O-])c4)c(Oc4cccc5[nH]cnc45)c3)CC2)=C(c2ccc(Cl)cc2)C1 (stereo not shown) [EXAMPLE 458, 2-(1H-benzimidazol-4-yloxy)-4-(4-{[2-(4-chlorophenyl)-4,4-dimethylcyclohex-1-en-1-yl]methyl}piperazin-1-yl)-N-{[4-({[4-(methylsulfonyl)morpholin-2-yl]methyl}amino)-3-nitrophenyl]sulfonyl}benzamide]	237.24
O=C(NS(=O)(=O)c1ccc(NCC2CCOCC2)c([N+](=O)[O-])c1)c1ccc(N2CCN(Cc3cc(OCCCN4CCCCC4)ccc3-c3ccc(Cl)cc3)CC2)cc1Oc1ccccc1 [Example 114, 4-(4-{[4′-chloro-4-(3-piperidin-1-ylpropoxy)-1,1′-biphenyl-2-yl]methyl}piperazin-1-yl)-N-({3-nitro-4-[(tetrahydro-2H-pyran-4-ylmethyl)amino]phenyl}sulfonyl)-2-phenoxybenzamide]	149.2
COCCOCCN1CCO[C@H](CNc2ccc(S(=O)(=O)NC(=O)c3ccc(N4CCN(CC5=C(c6ccc(Cl)cc6)CC(C)(C)CC5)CC4)cc3Oc3cccc4[nH]cnc34)cc2[N+](=O)[O-])C1 [EXAMPLE 455, 2-(1H-benzimidazol-4-yloxy)-4-(4-{[2-(4-chlorophenyl)-4,4-dimethylcyclohex-1-en-1-yl]methyl}piperazin-1-yl)-N-({4-[({(2R)-4-[2-(2-methoxyethoxy)ethyl]morpholin-2-yl}methyl)amino]-3-nitrophenyl}sulfonyl)benzamide]	139.4
CC1(C)CCC(CN2CCN(c3ccc(C(=O)NS(=O)(=O)c4ccc(NC5CCS(=O)(=O)C5)c([N+](=O)[O-])c4)c(Oc4ccc5[nH]ccc5c4)c3)CC2)=C(c2ccc(Cl)cc2)C1 (stereo not shown) [EXAMPLE 276, 4-(4-{[2-(4-chlorophenyl)-4,4-dimethylcyclohex-1-en-1-yl]methyl}piperazin-1-yl)-N-({4-[(1,1-dioxidotetrahydrothien-3-yl)amino]-3-nitrophenyl}sulfonyl)-2-(1H-indol-5-yloxy)benzamide]	2650.8
O=C(NS(=O)(=O)c1ccc(NCC2CCOCC2)c([N+](=O)[O-])c1)c1ccc(N2CCN(Cc3ccccc3-c3ccc(Cl)cc3)CC2)cc1Oc1cccc2ccccc12 [Example 34, 4-{4-[(4′-chloro-1,1′-biphenyl-2-yl)methyl]piperazin-1-yl}-2-(1-naphthyloxy)-N-({3-nitro-4-[(tetrahydro-2H-pyran-4-ylmethyl)amino]phenyl}sulfonyl)benzamide]	44.3
O=C(NS(=O)(=O)c1ccc(NCC2CCOCC2)c([N+](=O)[O-])c1)c1ccc(N2CCN(Cc3cc(OCCN4CCOCC4)ccc3-c3ccc(Cl)cc3)CC2)cc1Oc1ccccc1 [Example 115, 4-(4-{[4′-chloro-4-(2-morpholin-4-ylethoxy)-1,1′-biphenyl-2-yl]methyl}piperazin-1-yl)-N-({3-nitro-4-[(tetrahydro-2H-pyran-4-ylmethyl)amino]phenyl}sulfonyl)-2-phenoxybenzamide]	156.4
CC1(C)CCC(CN2CCN(c3ccc(C(=O)NS(=O)(=O)c4ccc(OCCC5CCOCC5)c([N+](=O)[O-])c4)c(Oc4cccc5[nH]ccc45)c3)CC2)=C(c2ccc(Cl)cc2)C1 [EXAMPLE 314, 4-(4-{[2-(4-chlorophenyl)-4,4-dimethylcyclohex-1-en-1-yl]methyl}piperazin-1-yl)-2-(1H-indol-4-yloxy)-N-{[3-nitro-4-(2-tetrahydro-2H-pyran-4-ylethoxy)phenyl]sulfonyl}benzamide]	>215.3
CN1CCN(Nc2ccc(S(=O)(=O)NC(=O)c3ccc(N4CCN(CC5=C(c6ccc(Cl)cc6)CCC(O)C5)CC4)cc3Oc3ccc4[nH]ccc4c3)cc2[N+](=O)[O-])CC1 (stereo not shown) [EXAMPLE 226, 4-(4-{[2-(4-chlorophenyl)-5-hydroxycyclohex-1-en-1-yl]methyl}piperazin-1-yl)-2-(1H-indol-5-yloxy)-N-({4-[(4-methylpiperazin-1-yl)amino]-3-nitrophenyl}sulfonyl)benzamide]	577.7
CCN(CC)C1CCC(Nc2ccc(S(=O)(=O)NC(=O)c3ccc(N4CCN(CC5=C(c6ccc(Cl)cc6)CC(C)(C)CC5)CC4)cc3Oc3ccc4[nH]ccc4c3)cc2[N+](=O)[O-])CC1 (stereo not shown) [EXAMPLE 201, 4-(4-{[2-(4-chlorophenyl)-4,4-dimethylcyclohex-1-en-1-yl]methyl}piperazin-1-yl)-N-[(4-{[4-(diethylamino)cyclohexyl]amino}-3-nitrophenyl)sulfonyl]-2-(1H-indol-5-yloxy)benzamide]	196.6
CC1(C)CCC(CN2CCN(c3ccc(C(=O)NS(=O)(=O)c4cnc(OC[C@@H]5CCN(CC(F)F)C5)c(Cl)c4)c(Oc4cccc5[nH]ncc45)c3)CC2)=C(c2ccc(Cl)cc2)C1 [EXAMPLE 445, N-[(5-chloro-6-{[(3R)-1-(2,2-difluoroethyl)pyrrolidin-3-yl]methoxy}pyridin-3-yl)sulfonyl]-4-(4-{[2-(4-chlorophenyl)-4,4-dimethylcyclohex-1-en-1-yl]methyl}piperazin-1-yl)-2-(1H-indazol-4-yloxy)benzamide]	484.2
CC1(C)CCC(CN2CCN(c3ccc(C(=O)NS(=O)(=O)c4ccc(S(=O)(=O)N5CCOCC5)cc4)c(Oc4ccc5[nH]ccc5c4)c3)CC2)=C(c2ccc(Cl)cc2)C1 [EXAMPLE 361, 4-(4-{[2-(4-chlorophenyl)-4,4-dimethylcyclohex-1-en-1-yl]methyl}piperazin-1-yl)-2-(1H-indol-5-yloxy)-N-{[4-(morpholin-4-ylsulfonyl)phenyl]sulfonyl}benzamide]	>92.6
CC(C)Oc1cc(-c2ccc(Cl)cc2)c(CN2CCN(c3ccc(C(=O)NS(=O)(=O)c4ccc(NCC5CCOCC5)c([N+](=O)[O-])c4)c(Oc4ccc5[nH]ccc5c4)c3)CC2)cn1 [EXAMPLE 330, 4-(4-{[4-(4-chlorophenyl)-6-isopropoxypyridin-3-yl]methyl}piperazin-1-yl)-2-(1H-indol-5-yloxy)-N-({3-nitro-4-[(tetrahydro-2H-pyran-4-ylmethyl)amino]phenyl}sulfonyl)benzamide]	>8.8
CN(C)CCCNc1ccc(S(=O)(=O)NC(=O)c2ccc(N3CCN(CC4=C(c5ccc(Cl)cc5)CC(C)(C)CC4)CC3)cc2Oc2ccc3[nH]ccc3c2)cc1S(=O)(=O)C(F)(F)Cl [Example 67, N-[(3-{[chloro(difluoro)methyl]sulfonyl}-4-{[3-(dimethylamino)propyl]amino}phenyl)sulfonyl]-4-(4-{[2-(4-chlorophenyl)-4,4-dimethylcyclohex-1-en-1-yl]methyl}piperazin-1-yl)-2-(1H-indol-5-yloxy)benzamide]	>2.3
CC1(C)CCC(CN2CCN(c3ccc(C(=O)NS(=O)(=O)c4ccc(Nc5ccc(O)cc5)c([N+](=O)[O-])c4)c(Oc4ccc5[nH]ccc5c4)c3)CC2)=C(c2ccc(Cl)cc2)C1 [EXAMPLE 375, 4-(4-{[2-(4-chlorophenyl)-4,4-dimethylcyclohex-1-en-1-yl]methyl}piperazin-1-yl)-N-({4-[(4-hydroxyphenyl)amino]-3-nitrophenyl}sulfonyl)-2-(1H-indol-5-yloxy)benzamide]	>58.6
CC(C)(C)c1ccc(CN2CCN(c3ccc(C(=O)NS(=O)(=O)c4ccc(OCC5CCOCC5)c([N+](=O)[O-])c4)c(Oc4ccc5[nH]ccc5c4)c3)CC2)c(-c2ccc(Cl)cc2)c1 [EXAMPLE 342, 4-{4-[(5-tert-butyl-4′-chloro-1,1′-biphenyl-2-yl)methyl]piperazin-1-yl}-2-(1H-indol-5-yloxy)-N-{[3-nitro-4-(tetrahydro-2H-pyran-4-ylmethoxy)phenyl]sulfonyl}benzamide]	>25.6
